Measured values reported in patent publication US7960483B2, “Adamantane derivative, composition comprising the derivative, and optical and electronic member using the composition” (Idemitsu Kosan Co., Ltd., priority 2006, dated 2011).

Key:
[1] = Compatibility test with bisphenol A (BPA) epoxy resin; assay type: physicochemical; details: 2.1 g sample + 0.9 g Epikote 828, mixed at 100-130° C., stood at room temperature; time until crystals begin precipitating
Procedure: A sample (2.1 g) and 0.9 g of a BPA epoxy resin (Epikote 828 manufactured by Japan Epoxy Resin Co., Ltd.) were heated to 100° C. to 130° C. and mixed. When a uniform mixture was confirmed to be obtained, the mixture was cooled to room temperature and allowed to quiescently stand to observe the precipitation of crystals with naked eyes and to determine the time period required for the crystals to begin precipitating. When the crystals began precipitating within 0 to 2 days, the evaluation was rated “C”. When 3 to 6 days were required, the evaluation was rated “B”. When no crystals were precipitated even when 7 days had passed, the evaluation was rated “A”.

[2] = Solubility test in cyclohexanone; details: saturation solubility at room temperature, liquid chromatography, about 3 days
Procedure: To 2 g of a sample 1 g of cyclohexanone was added. The mixture was heated to 80° C. to dissolve the sample and cooled to room temperature. Then seed crystals were added thereto and stirred. The solubility (unit: % by mass) of the sample in the solution was measured by liquid chromatography. Such stirring and measurement by liquid chromatography procedures were repeated for about 3 days. The saturation solubility represents the solubility value at which the measured solubility no longer changed.

| Solubility in cyclohexanone [2] [% by mass] | Compound | Compatibility with BPA type epoxy resin [1] |
| --- | --- | --- |
| – | 1,3-bis(glycidyloxyphenyl)adamantane [BP13-EPO, reference compound] | C (When the crystals began precipitating within 0 to 2 days, the evaluation was rated “C”) |
| 46 | c1cc(OCC2CO2)c(C2CCCCC2)cc1C12CC3CC(C1)CC(c1ccc(OCC4CO4)c(C4CCCCC4)c1)(C3)C2 (stereo not drawn) [BCHP13-EPO, 1,3-bis(4-glycidyloxy-3-cyclohexylphenyl)adamantane] | A (When no crystals were precipitated even when 7 days had passed, the evaluation was rated “A”) |
| 35 | Cc1cc(C23CC4CC(C2)CC(c2cc(C)c(OCC5CO5)c(C)c2)(C4)C3)cc(C)c1OCC1CO1 (stereo not drawn) [BDMP13-EPO, 1,3-bis(4-glycidyloxy-3,5-dimethylphenyl)adamantane] | A (When no crystals were precipitated even when 7 days had passed, the evaluation was rated “A”) |
| 32 | Cc1cc(C2(c3cc(C)c(OCC4CO4)c(C)c3)C3CC4CC(C3)CC2C4)cc(C)c1OCC1CO1 (stereo not drawn) [BDMP22-EPO, 2,2-bis(4-glycidyloxy-3,5-dimethylphenyl)adamantane] | B (When 3 to 6 days were required, the evaluation was rated “B”) |
| 33 | Cc1cc(C23CC4CC(C2)CC(c2ccc(OCC5CO5)c(C)c2)(C4)C3)ccc1OCC1CO1 (stereo not drawn) [BMP13-EPO, 1,3-bis(4-glycidyloxy-3-methylphenyl)adamantane] | B (When 3 to 6 days were required, the evaluation was rated “B”) |
